In patent US8735388B2, “Heterocyclic compounds with affinity to muscarinic receptors” (Abbvie B. V. A., priority 2007, dated 2014):
Read-outs that look alike come from different tables or passages of the source.

How the values were obtained:
[1] = target: T1, Muscarine M1 (GPCR-A-MA-ACH M1) (Homo sapiens, UniProt P11229); test: Muscarine M1 receptor binding, 3H-Pirenzepine; conditions: human M1, CHO cells, ligand 2 nM, 60 min/22° C.; for Ki: read-out: RB Musc. M1 3H-Pirenzepine pKi (converted)
T1 construct: expressed in transfected cells; host or cells: CHO cells
T1 sequence (P11229 1-460): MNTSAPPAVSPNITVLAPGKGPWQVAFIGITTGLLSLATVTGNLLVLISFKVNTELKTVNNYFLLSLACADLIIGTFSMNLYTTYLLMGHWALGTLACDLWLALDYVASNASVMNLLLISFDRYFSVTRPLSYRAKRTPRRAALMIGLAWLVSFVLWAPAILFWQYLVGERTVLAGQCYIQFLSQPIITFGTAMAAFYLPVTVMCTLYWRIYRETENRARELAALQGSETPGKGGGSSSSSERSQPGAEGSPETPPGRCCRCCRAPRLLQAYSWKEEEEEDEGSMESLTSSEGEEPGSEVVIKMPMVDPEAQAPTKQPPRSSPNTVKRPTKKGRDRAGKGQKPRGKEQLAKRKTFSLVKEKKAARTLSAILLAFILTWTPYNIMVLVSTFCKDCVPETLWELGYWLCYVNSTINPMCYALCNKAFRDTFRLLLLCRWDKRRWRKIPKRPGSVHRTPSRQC
Procedure: (§1) Compounds were dissolved in DMSO (10 mM) and diluted in assay buffer to test concentration. Prime testing was at 10 μM; for actives (PI, percent inhibition with respect to total and non-specific binding >40%) testing was continued at lower concentrations in 10-fold dilutions: 1 μM, 0.1 μM, etc.
(§2) Following incubation of compound with the receptor preparation (from ‘Tissue’) and the Ligand at the time and temperature indicated, the receptor preparations were rapidly filtered under vacuum through glass fibre filters; the filters were washed extensively with an ice-cold buffer using a harvester. Bound radioactivity was measured by scintillation counting using a liquid scintillation cocktail.
(§3) Results were expressed as percentage of total Ligand binding and that of Non Specific Binding, per concentration of Compound tested (duplicates); from the concentration—displacement curves IC50 values were determined by non-linear regression analysis using Hill equation curve fitting. The inhibition constants (Ki) were calculated from the Cheng-Prushoff equation Ki=IC50/(1+L/Kd), where L is the concentration of radioligand in the assay, and Kd the affinity of the radioligand for the receptor. Results were expressed as pKi's, means±SD of at least 2 separate experiments; i.e. outliers (outside+/−1 std of mean) and discrepancies were excluded.

[2] = target: T1, Muscarine M1 (GPCR-A-MA-ACH M1); test: Muscarine M1 cell-based functional assay (CHO cells, Ca2+ - FLIPR Fluorimetry); conditions: human M1, CHO cells; agonist mode, reference agonist acetylcholine; read-out: Cell funct. Musc. M1 Agonism pEC50 (converted)
[3] = target: T2, Muscarine M4 (GPCR-A-MA-ACH M4) (Homo sapiens, UniProt P08173); test: Muscarine M4 receptor binding, 3H-Oxotremorine
T2 construct: expressed in transfected cells; host or cells: CHO cells
T2 sequence (P08173 1-479): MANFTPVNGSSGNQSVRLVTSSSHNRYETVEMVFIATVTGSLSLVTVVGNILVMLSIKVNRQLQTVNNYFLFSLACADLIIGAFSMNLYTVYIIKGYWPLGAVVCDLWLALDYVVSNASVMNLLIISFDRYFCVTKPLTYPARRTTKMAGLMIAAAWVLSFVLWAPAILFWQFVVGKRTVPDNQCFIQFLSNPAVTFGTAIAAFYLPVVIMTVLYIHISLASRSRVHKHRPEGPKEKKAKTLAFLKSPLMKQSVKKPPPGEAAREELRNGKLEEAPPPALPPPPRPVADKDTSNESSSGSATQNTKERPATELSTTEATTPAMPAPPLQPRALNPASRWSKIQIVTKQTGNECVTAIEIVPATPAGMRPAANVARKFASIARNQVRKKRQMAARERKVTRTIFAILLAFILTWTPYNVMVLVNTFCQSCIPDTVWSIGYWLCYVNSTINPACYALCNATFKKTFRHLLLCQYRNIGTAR
Procedure: as §1, §2, §3

[4] = target: T2, Muscarine M4 (GPCR-A-MA-ACH M4); test: Muscarine M4 receptor binding, 3H-4DAMP; conditions: human M4, CHO cells, ligand 0.2 nM, 60 min/22° C.; for Ki: read-out: RB Musc. M4 3H-DAMP pKi (converted)
Procedure: as §1, §2, §3

[5] = target: T2, Muscarine M4 (GPCR-A-MA-ACH M4); test: Muscarine M4 cell-based functional assay (CHO cells, Ca2+ - Aequorin luminescence)
Procedure: Compounds were dissolved in DMSO (10 mM) and diluted in assay buffer to test concentration. Prime testing was at 1 μM; for actives in antagonist mode (PI, percent inhibition with respect to reference agonist and blank>30%) as well as actives in agonist mode (PS, percent stimulation with respect to reference agonist and blank>30%) testing was continued at lower concentrations in 10-fold dilutions: 0.1 μM, 0.01 μM, etc.
Cells were incubated with compound and the response indicated was measured.
The results are expressed as a percent of reference agonist values and blanks in the presence of the test compound, percent stimulation for agonist mode; for the antagonist mode (test compound in the presence of reference agonist) as percent inhibition. The EC50 values (concentration causing a half-maximal stimulation of control values), IC50 values (concentration causing a half-maximal inhibition of control values) were determined by non-linear regression analysis of the concentration-response curves using Hill equation curve fitting.

[6] = human M4, CHO cells, agonist mode, reference agonist oxotremorine, read-out: Cell funct. Musc. M4 Agonism pEC50 (converted)
[7] = human M4, CHO cells, receptor binding, ligand 6 nM, 30 min/25° C., read-out: RB Musc. M4 3H-Oxotremorine pKi (converted)

Row | Structure (SMILES) | Ki [1] [nM] | EC50 [2] [nM] | Ki [4] [nM] | EC50 [5, 6] [nM] | Ki [3, 7] [nM] | RB Musc. M1 3H-Pirenzepine pKi [1] | RB Musc. M4 3H-Oxotremorine pKi ([3]; human M4, CHO cells, receptor binding, ligand 6 nM, 30 min/25° C.) | RB Musc. M4 3H-DAMP pKi [4] | Cell funct. Musc. M4 Agonism pEC50 ([5]; human M4, CHO cells, agonist mode, reference agonist oxotremorine) | Ki [3] [nM] | EC50 [5] [nM]
1 | CCCCSc1c[nH]nc1[C@@H]1CN2CCC[C@H]1C2 (relative stereo) [Compound 60B, Endo-6-(4-butylsulfanyl-1H-pyrazol-3-yl)-1-azabicyclo[3.2.1]octane] | 398 | > 1000 | 158 | > 10000 | – | – | – | – | – | 251 | –
2 | CCCCCc1c[nH]nc1C1=CCCN(C)C1 [Compound 9, 3-(4-Pentyl-1H-pyrazol-3-yl)-1,2,5,6-tetrahydro-1-methylpyridine] | 1260 | 126 | 316 | > 10000 | 398 | – | – | – | – | – | –
3 | CCCCc1c[nH]nc1C1=CCCN(C)C1 [Compound 16, 3-(4-Butyl-1H-pyrazol-3-yl)-1,2,5,6-tetrahydro-1-methylpyridine] | – | – | – | > 10000 | – | – | – | – | – | – | –
4 | CCCCCCSc1c[nH]nc1C1=CCCN(C)C1 [Compound 22H, 3-(4-Hexylsulfanyl-1H-pyrazol-3-yl)-1,2,5,6-tetrahydro-1-methylpyridine] | 200 | 126 | 63.1 | 10 | 126 | – | – | – | – | – | –
5 | CN1CCC=C(c2n[nH]cc2SCCCc2ccccc2)C1 [Compound 22I, 3-[4-(3-Phenyl-propylsulfanyl)-1H-pyrazol-3-yl]-1,2,5,6-tetrahydro-1-methylpyridine] | 794 | 100 | 251 | 251 | 100 | – | – | – | – | – | –
6 | CN1CCC=C(c2n[nH]cc2SCC=Cc2ccccc2)C1 [Compound 22K, 3-[4-(3-Phenyl-allylsulfanyl)-1H-pyrazol-3-yl]-1,2,5,6-tetrahydro-1-methylpyridine] | 1260 | 100 | 631 | 1260 | 398 | – | – | – | – | – | –
7 | CN1CCC=C(c2n[nH]cc2SCc2ccco2)C1 [Compound 22M, 3-[4-(Furan-2-yl-methylsulfanyl)-1H-pyrazol-3-yl]-1,2,5,6-tetrahydro-1-methylpyridine] | 501 | – | 398 | > 10000 | 251 | – | – | – | – | – | –
8 | CN1CCC=C(c2n[nH]cc2SCc2ccccc2)C1 [Compound 22N, 3-(4-Benzylsulfanyl-1H-pyrazol-3-yl)-1,2,5,6-tetrahydro-1-methylpyridine] | 398 | – | 251 | > 10000 | 251 | – | – | – | – | – | –
9 | COCCOCCSc1c[nH]nc1C1=CCCN(C)C1 [Compound 22P, 3-{4-[2-(2-Methoxy-ethoxy)-ethylsulfanyl]-1H-pyrazol-3-yl}-1,2,5,6-tetrahydro-1-methylpyridine] | > 10000 | 398 | 6310 | 1260 | 6310 | – | – | – | – | – | –
10 | C=CCSc1c[nH]nc1C1=CCCN(C)C1 [Compound 22Q, 3-(4-Allylsulfanyl-1H-pyrazol-3-yl)-1,2,5,6-tetrahydro-1-methylpyridine] | 794 | – | 501 | > 10000 | 126 | – | – | – | – | – | –
11 | CN1CCC=C(c2n[nH]cc2SCCC#N)C1 [Compound 22R, 3-[3-(1-Methyl-1,2,5,6-tetrahydro-pyridin-3-yl)-1H-pyrazol-4-ylsulfanyl]-propionitrile] | 12600 | – | 3980 | > 10000 | 2000 | – | – | – | – | – | –
12 | CCCCSc1cc(C2=CCCN(C)C2)n[nH]1 [Compound 26, 3-(5-Butylsulfanyl-1H-pyrazol-3-yl)-1,2,5,6-tetrahydro-1-methylpyridine] | 158 | – | 200 | > 10000 | 251 | – | – | – | – | – | –
13 | CCCC(=O)Nc1c[nH]nc1C1=CCCN(C)C1 [Compound 41] | > 10000 | – | > 10000 | > 10000 | > 10000 | – | – | – | – | – | –
14 | CCCCNc1c[nH]nc1C1=CCCN(C)C1 [Compound 42, Butyl-[3-(1-Methyl-1,2,5,6-tetrahydro-pyridin-3-yl)-1H-pyrazol-4-yl]-amine] | 7940 | – | 5010 | > 10000 | 3980 | – | – | – | – | – | –
15 | O=C1CCCN1CC#CCN1CCCC1 [oxotremorine, reference compound] | – | – | – | – | – | – | – | – | – | – | 40

Now from value to compound, other results behind:

Row | Ki [1] [nM] | EC50 [2] [nM] | Ki [4] [nM] | EC50 [5, 6] [nM] | Ki [3, 7] [nM] | RB Musc. M1 3H-Pirenzepine pKi [1] | RB Musc. M4 3H-Oxotremorine pKi ([3]; human M4, CHO cells, receptor binding, ligand 6 nM, 30 min/25° C.) | RB Musc. M4 3H-DAMP pKi [4] | Cell funct. Musc. M4 Agonism pEC50 ([5]; human M4, CHO cells, agonist mode, reference agonist oxotremorine) | Structure (SMILES) | Ki [3] [nM] | EC50 [5] [nM]
16 | 1260 | 126 | 251 | 794 | 501 | – | – | – | – | CN1CCC=C(c2n[nH]cc2OCCCc2ccccc2)C1 [Compound 33A, 3-[4-(3-Phenyl-propoxy)-1H-pyrazol-3-yl]-1,2,5,6-tetrahydro-1-methylpyridine] | – | –
17 | 1260 | 126 | 316 | 1260 | 1580 | – | – | – | – | CCCCOc1c[nH]nc1C1=CCCN(C)C1 [Compound 33C, 3-(4-Butyloxy-1H-pyrazol-3-yl)-1,2,5,6-tetrahydro-1-methylpyridine] | – | –
18 | 2510 | 100 | 1000 | 1260 | 1580 | – | – | – | – | C=CCCOc1c[nH]nc1C1=CCCN(C)C1 [Compound 33D, 3-(4-But-3-enyloxy-1H-pyrazol-3-yl)-1,2,5,6-tetrahydro-1-methylpyridine] | – | –
19 | 1000 | 200 | 316 | 631 | 158 | – | – | – | – | CCCCCCCOc1c[nH]nc1C1=CCCN(C)C1 [Compound 33E, 3-(4-Heptyloxy-1H-pyrazol-3-yl)-1,2,5,6-tetrahydro-1-methylpyridine] | – | –
20 | – | – | – | – | – | 6.1 | 6.8 | 6.5 | <5.0 | CN1CCC=C(c2n[nH]cc2C=Cc2cccc(F)c2)C1 [Compound 47B, 3-{-4-2[-(3-Fluor-Phenyl)-vinyl]-1H-pyrazol-3-yl}-1,2,5,6-tetrahydro-1-methylpyridine] | – | –
21 | 398 | – | 251 | > 10000 | 63.1 | – | – | – | – | CCCCCSc1c[nH]nc1[C@@H]1CN2CCC[C@H]1C2 [Compound 60A, Endo-6-(4-pentylsulfanyl-1H-Pyrazol-3-yl)-1-azabicyclo[3.2.1]octane] | – | –
22 | 251 | – | 39.8 | > 10000 | 79.4 | – | – | – | – | CCCCSc1conc1C1=CCCN(C)C1 [Compound 66A, 3-(4-Butylsulfanyl-isoxazol-3-yl)-1,2,5,6-tetrahydro-1-methylpyridine] | – | –
23 | 631 | – | 100 | 501 | 158 | – | – | – | – | CCCCCCSc1conc1C1=CCCN(C)C1 [Compound 66B, 3-(4-Hexylsulfanyl-isoxazol-3-yl)-1,2,5,6-tetrahydro-1-methylpyridine] | – | –
